How the values were obtained:
yeast Sin3 PAH2 domain [1] = target: T1, yeast Sin3 PAH2 domain (Saccharomyces cerevisiae, UniProt P22579); assay: fluorescence polarization displacement of FITC-Ume6 SID; assay type: binding
T1 sequence (P22579 402-473): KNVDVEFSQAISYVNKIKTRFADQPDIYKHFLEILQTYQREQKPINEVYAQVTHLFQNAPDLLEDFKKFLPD

yeast Sin3 PAH2 domain [2] = target: T1, yeast Sin3 PAH2 domain; assay: fluorescence polarization displacement of FITC-Ume6 SID peptide; assay type: binding

| Ki (yeast Sin3 PAH2 domain [1]) | IC50 (yeast Sin3 PAH2 domain [2]) | SMILES |
| --- | --- | --- |
| 16.1 µM | 74.5 ± 7.2 µM | C[C@@H](NC(=O)C1C(=O)N=C2C=CC=CN2C1O)c1ccccc1 (stereo partly drawn) [E6R, 4-hydroxy-2-oxo-N-((R)-1-phenylethyl)-3,4-dihydro-2H-pyrido[1,2-a]pyrimidine-3-carboxamide] |
| 38.5 µM | 174 ± 21.9 µM | C[C@H](NC(=O)C1C(=O)N=C2C=CC=CN2C1O)c1ccccc1 (stereo partly drawn) [E6S, 4-hydroxy-2-oxo-N-((S)-1-phenylethyl)-3,4-dihydro-2H-pyrido[1,2-a]pyrimidine-3-carboxamide] |

From paper doi:10.1101/2022.12.07.519454v2 (biorxiv, 2023)
